# Measured values taken from patent US20080293931A1, “Methods and compositions for the removal of nucleic acid amplification inhibitors” (priority 2006, published 2008).
# Entries after “also recorded” stand apart in the source; their conditions may differ. Where two headings read alike, the source gives them in different places.
# How the values were obtained:
# [1] = Humic acid (HA) removal from aqueous commercial HA solutions by PIR compounds, fluorimetric HA determination; design: key to ε values: ε = −log(1 − efficiency); efficiency = ([HA]i − [HA]f)/[HA]i; settings: for performance as PIR compound (in words): commercial humic acid solutions; for Average Efficiency, ε / Avg Reduction Factor: aqueous humic samples seeded with E. coli DNA
# Method: Humic solutions were in 1×TAE buffer at RT with pH˜7. […] Samples from PIR experiments utilizing these materials were diluted, using 1×TAE, to concentrations falling within the linear response region representative of the humic material used.
# In this study, when samples were interrogated for humic acid concentrations via fluorimetry, known concentrations of commercial humic acids were compared to known concentrations of humic standards.
# FIG. 1 compares the HA removal from samples containing DNA of interest to the molar concentration of varied PIR compounds by plotting an HA reduction factor as the initial [HA] divided by [HA] following treatment with PIR compounds. The commercially available PIR kit, from Mo-BIO, is placed on FIG. 1 for comparison and was arbitrarily assigned a molar concentration of 1 for convenience. […] The data shown in FIG. 1 were generated from varied initial [HA], ranging from ˜5,000 to 300,000 mg/L HA. These varied initial [HA] values represent a “worst case” scenario and these are in comparison to initial [HA] in extractions from problematic soils generating humic acid concentrations typically less than 5,000 mg/L.
# FIG. 2 plots the data from the same experiments represented in FIG. 1, but applying a different approach for data metric. FIG. 2 plots a dimensionless HA removal efficiency (or efficacy) value versus the decade of dilution necessary for successful PCR. The efficiency of HA removal is defined in equation 1 as the initial [HA] minus the final [HA] divided by the initial [HA]. This is essentially a percent removal approach.
# Efficiency=[HA]i−[HA]f/[HA]; (1)
# To further discriminate efficiency values greater than 0.99, the efficiency was subtracted from the integer value of 1, and the −log was taken of 1-efficiency to generate a non-negative value indicative of HA removal efficiency with greater level of discrimination and resolution of values with high degrees of HA removal. This is described by equation 2.
# E. coli DNA = assay: PCR of seeded E. coli DNA after PIR treatment of aqueous HA samples (decade of dilution necessary for successful PCR); settings: for Typical dilution decade for PCR / range of dilutions (dilution decade for PCR): aqueous humic samples seeded with E. coli DNA
# Method: Consideration of dilution factors for successful PCR must also be reviewed. In untreated soil extracts containing DNA of interest, successful PCR of the extracted DNA may occur when the polymerase inhibitor is diluted sufficiently such that inhibition is suppressed and PCR may occur. Typical values for the dilution decade at which PCR is successful in samples containing humic materials and DNA of interest are often around decade four (1×10^4). Accordingly, a dilution factor of 10,000 would be necessary for successful PCR in a typical soil extract/sample. This magnitude of dilution may also impact PCR sensitivity for DNA/species already present at low concentrations and result in not identifying an organism that was present in the original sample extract.
# Using this approach for presenting the HA removal data allows for the determination of a PIR compound's effectiveness for HA removal (ε) and compatibility for application in PCR systems via dilution data for PCR.
# seeded E. coli DNA = assay: PCR after PIR treatment of soil extracts (dilution to achieve PCR)
# [2] = Solubility of PIR compounds in aqueous solution; format: physicochemical; settings: for solubility: aqueous solution
# [3] = PIR 1 M, HAi avg 6,500-12,300 depending on compound (Table 6 c2)
# [4] = 4.0 M AMG in phosphate buffer, 30 days storage, 4 C., dark, HA avg ~10,000 mg/L
# [5] = 4.0 M AMG in phosphate buffer, 30 days storage, 25 C., dark, HA avg ~10,000 mg/L
# [6] = 4.0 M AMG in phosphate buffer, 30 days storage, 25 C., light, HA avg ~10,000 mg/L
# [7] = 4.0 M AMG in phosphate buffer, 30 days storage, −20 C., dark, HA avg ~10,000 mg/L
# [8] = 5.5 M AMG in phosphate buffer, 30 days storage, 4 C., dark, HA avg ~10,000 mg/L
# [9] = 5.5 M AMG in phosphate buffer, 30 days storage, 25 C., dark, HA avg ~10,000 mg/L
# [10] = 5.5 M AMG in phosphate buffer, 30 days storage, 25 C., light, HA avg ~10,000 mg/L
# [11] = 5.5 M AMG in phosphate buffer, 30 days storage, −20 C., dark, HA avg ~10,000 mg/L
smiles,measurement,setting,value
"Nc1ccc(C(=O)C[n+]2ccsc2)cc1.[Br-] [PTB-A, 4-Amine-Phenacyl Thiazolium Bromide]",performance as PIR compound (in words),[1],did not perform well; also recorded: poor performance
"Cc1ncc(CO)c(CN)c1O [PDA, Pyridoxamine]",Decade of dilution,"E. coli DNA; 1M PDA in phosphate buffer, 30 days storage, 4 C., dark, HA avg ~10,000 mg/L",0
same,Decade of dilution,"E. coli DNA; 1M PDA in phosphate buffer, 30 days storage, 25 C., dark, HA avg ~10,000 mg/L",0
same,Decade of dilution,"E. coli DNA; 1M PDA in phosphate buffer, 30 days storage, 25 C., light, HA avg ~10,000 mg/L",0
same,Decade of dilution,"E. coli DNA; 1M PDA in phosphate buffer, 30 days storage, −20 C., dark, HA avg ~10,000 mg/L",0
same,Decade of dilution,"E. coli DNA; 2.9M PDA in phosphate buffer, 30 days storage, 4 C., dark, HA avg ~10,000 mg/L",0
same,Decade of dilution,"E. coli DNA; 2.9M PDA in phosphate buffer, 30 days storage, 25 C., dark, HA avg ~10,000 mg/L",1
same,Decade of dilution,"E. coli DNA; 2.9M PDA in phosphate buffer, 30 days storage, 25 C., light, HA avg ~10,000 mg/L",1
same,Decade of dilution,"E. coli DNA; 2.9M PDA in phosphate buffer, 30 days storage, −20 C., dark, HA avg ~10,000 mg/L",0
same,Decade of dilution,E. coli DNA; 2.9M PDA solutions freshly prepared (Day 0),0
same,Typical dilution decade for PCR,E. coli DNA; [3],1
same,range of dilutions (dilution decade for PCR),E. coli DNA; [3],0-2
same,PCR products imaged after gel electrophoresis (band intensity),E. coli DNA; aqueous HA samples seeded with E. coli DNA,often low and weak
same,"dilution decade at which PCR is achieved, on average","seeded E. coli DNA; 100 mM PIR, soil extracts (Los Alamos Airport Soil)",1.0
same,PCR products following gel electrophoresis (band intensity),seeded E. coli DNA; PIR treated soil samples,typically weak
CC(=O)C[n+]1ccsc1,performance as PIR compound (in words),[1],did not perform well
"N=C(N)NN [AMG, Aminoguanidine, reference compound]",HA reduction factor,[1]; [4],7
same,ε values,[1]; [4],0.83
same,HA reduction factor,[1]; [5],6
same,ε values,[1]; [5],0.81
same,HA reduction factor,[1]; [6],6
same,ε values,[1]; [6],0.80
same,HA reduction factor,[1]; [7],4
same,ε values,[1]; [7],0.65
same,ε values,"[1]; 4.0M AMG, 30 days storage",less than 1
same,HA reduction factor,[1]; [8],14
same,ε values,[1]; [8],1.15
same,HA reduction factor,[1]; [9],15
same,ε values,[1]; [9],1.16
same,HA reduction factor,[1]; [10],19
same,ε values,[1]; [10],1.13
same,HA reduction factor,[1]; [11],19
same,ε values,[1]; [11],1.28
same,ε values,"[1]; 5.5 M AMG, 30 days storage",less than 1.3
same,Typical HA reduction factors,"[1]; AMG 4.0 and 5.5 M, 30 days storage, HA ~10,000 mg/L",less than 20
same,"Average Efficiency, ε","[1]; PIR 4 M, HAi avg 35,000",0.77
same,Avg Reduction Factor,"[1]; PIR 4 M, HAi avg 35,000",6
same,performance as PIR compound (in words),[1],poor performance
same,Decade of dilution,E. coli DNA; [4],2
same,Decade of dilution,E. coli DNA; [5],2
same,Decade of dilution,E. coli DNA; [6],2
same,Decade of dilution,E. coli DNA; [7],2
same,Decade of dilution,E. coli DNA; [8],2
same,Decade of dilution,E. coli DNA; [9],2
same,Decade of dilution,E. coli DNA; [10],2
same,Decade of dilution,E. coli DNA; [11],2
same,Typical dilution decade for PCR,"E. coli DNA; PIR 4 M, HAi avg 35,000",4
same,range of dilutions (dilution decade for PCR),"E. coli DNA; PIR 4 M, HAi avg 35,000",3-4
same,dilution required for successful PCR products,E. coli DNA; both 4.0 and 5.5 M AMG,2 orders of magnitude
"Cc1ncc(C[n+]2csc(CCO[P@](=O)(O)OP(=O)(O)O)c2C)c(N)n1 [THI-PP, thiamine pyrophosphate]",solubility,"[2]; aqueous solutions, read-out: solubility in aqueous solutions (molar solubility)",300 mM
same,solubility,"[2]; starred values of column PIR, M (footnote of Table 6), read-out: maximum molar solubility",300 mM
same,solubility in aqueous solutions (molar solubility),[2]; aqueous solutions,~300 mM
same,"Average Efficiency, ε","[1]; PIR 0.3 M, HAi avg 14,000",2.57
same,Avg Reduction Factor,"[1]; PIR 0.3 M, HAi avg 14,000",384
same,performance as PIR compound (in words),[1],did not perform well; also recorded: poor performance
same,Typical dilution decade for PCR,"E. coli DNA; PIR 0.3 M, HAi avg 14,000",0
same,range of dilutions (dilution decade for PCR),"E. coli DNA; PIR 0.3 M, HAi avg 14,000",0-3
